Measured values published in ChEMBL document CHEMBL1123130 (J Med Chem, 1985).

Target: T1, Progesterone receptor (Oryctolagus cuniculus, UniProt P06186)
T1 sequence (P06186 whole entry): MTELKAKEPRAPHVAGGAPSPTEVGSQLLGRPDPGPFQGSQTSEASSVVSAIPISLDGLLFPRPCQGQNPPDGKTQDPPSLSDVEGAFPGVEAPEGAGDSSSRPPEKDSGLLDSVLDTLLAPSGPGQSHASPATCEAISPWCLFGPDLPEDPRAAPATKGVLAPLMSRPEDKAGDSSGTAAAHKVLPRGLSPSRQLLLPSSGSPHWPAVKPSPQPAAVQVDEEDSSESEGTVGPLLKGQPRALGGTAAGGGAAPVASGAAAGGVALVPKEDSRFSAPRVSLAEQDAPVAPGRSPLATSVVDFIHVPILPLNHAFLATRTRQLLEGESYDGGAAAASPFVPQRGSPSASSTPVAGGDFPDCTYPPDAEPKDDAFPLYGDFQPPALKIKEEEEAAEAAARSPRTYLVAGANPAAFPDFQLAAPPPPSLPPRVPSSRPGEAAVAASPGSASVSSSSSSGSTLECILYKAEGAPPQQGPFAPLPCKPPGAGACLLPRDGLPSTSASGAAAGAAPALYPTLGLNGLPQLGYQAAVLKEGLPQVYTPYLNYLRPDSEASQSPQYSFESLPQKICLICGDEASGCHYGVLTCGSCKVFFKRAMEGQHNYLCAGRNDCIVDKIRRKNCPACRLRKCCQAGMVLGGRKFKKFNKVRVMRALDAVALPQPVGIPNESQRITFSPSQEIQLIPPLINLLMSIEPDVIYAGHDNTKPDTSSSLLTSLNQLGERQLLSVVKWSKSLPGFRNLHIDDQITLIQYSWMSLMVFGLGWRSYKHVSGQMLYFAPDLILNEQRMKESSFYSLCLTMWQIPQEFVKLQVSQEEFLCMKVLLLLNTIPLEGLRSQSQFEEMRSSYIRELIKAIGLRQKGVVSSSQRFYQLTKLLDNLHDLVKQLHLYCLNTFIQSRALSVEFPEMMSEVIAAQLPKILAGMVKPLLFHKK
Test: Inhibition of [3H]R5020 binding to rabbit uterine progesterone receptor

Row | Compound | Ki [µM]
1 | CC12CCC3C4CCC(=O)C=C4CCC3C1CCC2(O)/C=C\I (centres undefined) | 0.00426
2 | CC12CCC3C4CCC(=O)C=C4CCC3C1C[C@@H](I)C2O (some centres undefined) | 0.0398
3 | C=C(I)C1(O)CCC2C3CCC4=CC(=O)CCC4C3CCC21C (centres undefined) | 0.0801
4 | CC12CCC3C4CCC(=O)C=C4CCC3C1CCC2(O)/C=C/I (centres undefined) | 0.00181
